Data taken from a melting point compilation (Tetko et al.; mined from patent text by program, amines drawn as free bases though some values may be those of a salt).

| melting point | Structure (SMILES) |
| --- | --- |
| 60 °C | CC(Cl)c1ccc(C(=O)c2cccs2)cc1 (stereo not given) |
| 264 to 267 °C | Cn1nnnc1-c1cn(C)c2cc(F)ccc2c1=O |
| 168 to 169 °C | CS(=O)(=O)c1ccc(Oc2ccc3[nH]c(C4=NCC(CC(=O)N5CCOCC5)S4)cc3c2)cn1 (stereo not given) |
| 132 to 134 °C | Cn1ncc2c1-c1c(Oc3ccc4c(c3)OCO4)sc(C#N)c1CC2 |
| 191 to 193 °C | Nc1ccc2c(c1)CCN(Cc1ncn[nH]1)C2 |
| 145 to 148 °C | CCc1cc(OCc2ccc(-c3ccccc3-c3nnn(C(c4ccccc4)(c4ccccc4)c4ccccc4)n3)cc2)c2nc(OC)ccc2n1 |
| 160 to 164 °C | Ic1ccc(Cc2ccc(I)cc2)cc1 |
| 154 to 155 °C | CC(=O)Nc1cccc2ccc(OCC3CC3)cc12 |
| 135 to 137 °C | Cc1[nH]cnc1CSCCCN=C(NC#N)NCCc1c[nH]cn1 |
| 206 to 208 °C | COC(=O)C1=C(C)NC(C)=C(C(=O)OC)C1c1ccccc1F |
| 107 to 108 °C | O=C1CCCN1C(=O)Oc1ccc(Br)cc1 |
| 146 to 148 °C | O=C(CCCCN1CCOCC1)c1ccc2c(c1)C(=O)c1cc(C(=O)CCCCN3CCOCC3)ccc1-2 |
| 270 °C | CCCC1=C(C#N)C(c2ccccc2Cl)c2c(n[nH]c2C2CC2)N1 (stereo not given) |
| 127 to 128 °C | O=S(=O)(N[C@H](CO)c1ccccc1)c1ccc(Cl)cc1 |
| 41.5 to 43.9 °C | CCCCCCCCCCOCCC(=O)O |
| 55 to 56 °C | COc1ccc(COCC(O)Cc2cccnc2)cc1 (stereo not given) |
| > 300 °C | O=C(Nc1cc(Cl)ccc1N1CCCCC1)c1cnn2cc(O)cnc12 |
| 193 to 195 °C | O=C(NC1CC1)c1ccc(-c2ccc3nnn(Cc4ccc5ncccc5c4)c3n2)cc1F |
| 206 to 208 °C | CN1Cc2c(C#N)ncn2-c2ccsc2C1=O |
| 140 to 141 °C | Nc1nccc(-c2cccc(OCC(O)CN3CCN(c4cccc(Cl)c4)CC3)c2)n1 (stereo not given) |
| 119 °C | CN(C(=O)Nc1ccc(Cl)c(Cl)c1)S(=O)(=O)CCl |
| 93 to 95 °C | COC(=O)c1cscc1N=C=S |
| 130 °C | CC1=CC2=C(N3CN(n4cc(C)nc4-c4cc(Cl)ccc4Cl)C=C3N=N2)N(c2cc(Cl)ccc2Cl)C1 |

| melting point | Structure (SMILES) |
| --- | --- |
| 92 to 94 °C | COC(=O)c1c(N)ccc([N+](=O)[O-])c1C |
| 57 °C | O=C1CN(C/C=C/c2ccc(Cl)cc2)CCN1c1cc(F)ccc1[N+](=O)[O-] |
| 238 to 240 °C | CCc1nc2c(N)nc3cc(/C=C/C(=O)OC)ccc3c2n1CC(C)(C)O |
| 138 to 139 °C | COc1ccc2[nH]cc(CC#N)c2c1Cl |
| 61 to 62 °C | O=C1C(=Cc2ccsc2)CCc2cc(OCCn3ccnc3)ccc21 |
| 124 °C | Cc1cc(C)n(C(=O)CNS(=O)(=O)c2ccc(CC(C)C)cc2)n1 |
| 185 to 224 °C | CC(=O)NC1(C)Cc2ccccc2C(C)c2ccccc2C1 (stereo not given) |
| 64 to 65 °C | CNC(=S)NCCCCCC1CCSS1 (stereo not given) |
| 192 to 193 °C | Cc1cccc(C)c1NC(=O)NO |
| 280 to 281 °C | O=C(O)c1cc(C(=O)O)c(C(O)=NCCO)cc1C(O)=NCCO |
| 106 °C | CCCCCN1CCC(n2nc(-c3c(-c4ccccc4)nn4ccccc34)ccc2=O)CC1 |
| 175 to 177 °C | CC1(C)CON(Cc2ccc(Nc3cc4ccccc4c(=O)o3)cc2)C1=O |
| 155 to 156 °C | CN(C)C=Nc1c(Cl)cc(N=Cc2ccc3c(c2)OCO3)cc1Cl |
| 60.8 °C | CCCCCCCCOc1ccc(-c2ccc(C(C)OC(=O)CCCCC)cc2)cc1 (single isomer, unassigned; (-)) |
| 180 to 182 °C | CS(=O)c1nc(O)nn1-c1ccccc1 (stereo not given) |
| 211 to 213 °C | Nc1ncnc2c1ncn2OCCSCP(=O)(O)O |
| 93 to 96 °C | COC(=O)c1nc2ccc(NCCCN3CCC(OC(c4ccccc4)c4ccccc4)CC3)nn2n1 |
| 211 °C | CC(C)n1cc(-c2nc(C#N)c(N)nc2-c2cccc(F)c2)ccc1=O |
| 178 to 179 °C | CCNC(=O)Nc1ccc(C(O)(C(F)(F)F)C(F)(F)F)cc1 |
| 162 °C | Fc1cc(-c2cc(C(F)(F)F)n3ncc(-c4cccnc4)c3n2)ccc1C(F)(F)F |
| 136 to 138 °C | CC(C)(C)C(=O)Nc1nn(-c2ccc(F)cc2F)c2c1C1CCC2C1 (stereo not given) |
| 186 to 188 °C | COc1cc2c(c(C(C)C)c1OC)C(=O)NS2(=O)=O |
| 160 to 162 °C | Cc1cc(C2=CC(c3cc(Cl)cc(Cl)c3)(C(F)(F)F)OC2)ccc1C(=O)OC(C)(C)C (stereo not given) |

| melting point | Structure (SMILES) |
| --- | --- |
| 164 to 165 °C | COc1ccc(C(=O)Nc2ccccc2)cc1NCc1ccccc1 |
| 190 to 192 °C | Nc1nnc(-c2cccc(OCc3c(Cl)cccc3Cl)c2)c(N)n1 |
| 247 to 250 °C | COC(=O)c1cn2c3c(c(OS(C)(=O)=O)c(F)cc3c1=O)CCN2C |
| 89.2 to 89.5 °C | COc1cc2c(cc1OC)CN(CCCCNC(=O)c1cc(C)ccc1OCCOCCF)CC2 |
| 80 to 81 °C | CN(C)c1nc(N(C)Cc2ccc(O)cc2)nc(N(C)Cc2ccccc2O)n1 |
| 114 to 115 °C | CCOC(=O)CCc1n[nH]c(SCc2ccc(OCc3nc(-c4ccccc4)oc3C)cc2)n1 |
| 115 to 116 °C | CCCCCC(=O)NCCc1ccc(S(=O)(=O)NC(=O)c2ccc(C(=O)NCC(=O)O)nc2)cc1 |
| 300 °C | NC(=O)NN=Cc1c2ccccc2c(C=NNC(N)=O)c2ccccc12 |
| 173 to 175 °C | CSc1ccc(-c2nc(SC)c(C(=O)O)c(=O)n2-c2ccc(C)cc2)cc1 |
| 173 °C | O=C(Cc1ccccc1)NC(C(=O)O)C(c1ccccc1)c1ccccc1 (stereo not given) |
| 35 °C | Cn1nc(-c2ccc(Cl)cc2Cl)cc1OC(F)F |
| 46 to 48 °C | COC(=O)c1cc(OCCCCCCCCCCCCOc2ccccc2)ccc1OCc1ccccc1 |
| 114 to 116 °C | O=C(O)c1ccc(OCCOc2ccccc2)cc1O |
| 127 °C | COc1ccccc1CNC(=O)c1ccc2c(c1)N(C(C)CN1CCCC1)c1ccccc1S2 (racemic) |
| 232 to 234 °C | NC1([C@@H]2CCN(c3nc4c(cc3F)c(=O)c(C(=O)O)cn4[C@@H]3C[C@@H]3F)C2)CC1 |
| 236 to 237 °C | CCOC(=O)c1ccnc(-c2nc(=O)c3ccccc3s2)c1 |
| 63 to 66 °C | COc1ccc(C(=O)Nc2ccc(-c3ccc(C=O)cc3C)c(C)c2)cc1CCCN(C)C |
| 148 to 150 °C | Cc1cc(C)nc(-c2ncc([N+](=O)[O-])n2C)n1 |
| 165 °C | CN(C(=O)CN1C(=O)C(NC(=O)Nc2cccc(C#N)c2)N=C(CN2CCSCC2)c2ccccc21)c1ccccc1 (stereo not given) |
| 224 to 226 °C | O=C1C(CSC(=O)c2ccccc2)=C(CSC(=O)c2ccccc2)C(=O)C(CSC(=O)c2ccccc2)=C1CSC(=O)c1ccccc1 |
| 166 to 168 °C | O=C1NOc2cccc3nc4c(c(c23)C1Cc1ccccc1)CCCC4 (stereo not given) |
| 60 °C | CCCCCCCCC(CCCCCCCC)n1c2ccsc2c2sccc21 |

| Structure (SMILES) | melting point |
| --- | --- |
| CC12CCC3C(CCC4CC(=O)CCC43CO[Si](C)(C)C(C)(C)C)C1CCC2=O (stereo not given) | 130 to 132 °C |
| C/C(=C/CO)c1cc2c(cc1O)C(C)(C)CCC2(C)C | 144 to 145 °C |
